Test results reported in patent US20050119344A1, “Medium for radical treatment of tumors, inflammatory processes, fungal infections and other affections of the tissues, diagnostic and prophylactic and method of its implementation” (priority 2001, published 2005).

Assays:
[1] = tested on: malign formation in the milk gland
Source text: (§1) The treatment is provided by rub in the medium with a tampon impregnated with it, directly in the tumor (by the skin ones), or in the accessible surface of the healthy tissue situated near by it. The rub in takes place repeatedly, with waiting for the absorption of the solution, until the tumor is saturated with formic acid in such a degree, that the blood in its blood-vessels coagulates and so that the tumor will be necrotized. […] By the benign tumor the treatment shall include mechanical irritation of its tissue too, with the purpose to stimulate the blood-circulation in it, by which the blood-vessels will be filled out and their surface will be enlarged on the account of the thickness of their walls. Such a treatment can be utilized, if necessary, by the malignant tumors too.
In the concrete case the treatment is applied on the spouse and respectively parent of the inventors. The women is […], with two side fibrose mastopatia. On 19 Nov. 2001 by an echographic examination has been discovered malign formation in the left breast, sector 12h, with the above mentioned dimensions and deepness, (FIG. 1 and FIG. 2). The diagnosis was confirmed through punctual biopsy. The treatment by the above-mentioned method began on 23 Nov. 2001 in the evening. […] The procedures continued three times daily in the following days.

[2] = tested on: benign human skin tumors; conditions: through rub in
Source text: as §1

[3] = tested on: pathologically altered tissue; conditions: very weak solutions, in the range of 10%
Source text: By broader studies can be composed a table for the painfulness of the reaction by the different groups of tumors and other types of tissue alteration, depending on the solution concentration, the time of influence, for example by rub in and the deepness of the alteration.
The method has been applied for diagnostic of breast cancer.

[4] = tested on: inflammatory processes, mushroom formations, and other pathological alterations of the tissues

O=CO [formic acid, formic (methane) acid (HCOOH)]
state of the tumor tissue ([1]; concluded from echography, biopsy and lack of pain by rub in): necrotized
echographic size of the flack ([1]; echography 11 Dec. 2001 (FIG. 5)): the flack is diminished
outcome of treatment of malign formation in the milk gland ([1]; only through rub in, formation 5.7 to 7.4 mm, about 8 mm deep): successfully implemented
second punction biopsy, cancer cells ([1]; person, rub in three times daily from 23 Nov. 2001, biopsy 01 Dec. 2001): have not been observed cancer cells
elimination of benign human skin tumors [2]: repeatedly implemented for the elimination
reaction when hitting places with pathologically altered tissue [3]: give pain reaction
action in inflammatory processes, mushroom formations and other tissue alterations ([4]; rub in, pulverizing, inhalations or other supply): acts very effectively and rapidly
outcome in tooth grenolom ([4]; three cases): the extraction of the teeth was prevented
